Test results from patent US10941113B2, “Sulfamoyl-arylamides and the use thereof as medicaments for the treatment of hepatitis B” (Janssen Sciences Ireland UC, priority 2013, dated 2021).

What was measured:
Assay type in all cases: cell-based
HBV [1] = test: Anti-HBV activity, HepG2.2.15 stable transfected cell line, HBV DNA from secreted virions by realtime PCR; settings: Hepatitis B virus, 144 h, HepG2.2.15 cells, 6 days of treatment
HBV [2] = test: Anti-HBV activity, HepG2.117 inducible HBV producing cell line (Tet-off), intracellular HBV DNA by realtime PCR; settings: Hepatitis B virus, 72 h, HepG2.117 cells, 3 days of treatment
[3] = Cytotoxicity in HepG2 cells, Resazurin assay; settings: human, incubated 4 days, Resazurin viability

Structure (SMILES)	EC50 (HBV [1]) [nM]	EC50 (HBV [2]) [nM]	CC50 at 4 days [3] [nM]
Cc1cc(NC(=O)c2cccc(S(=O)(=O)NC(C)CC#N)c2)ccc1F (racemic) [Compound 10]	220	190	> 25000
Cc1cc(NC(=O)c2cccc(S(=O)(=O)N[C@H](C)CC#N)c2)ccc1F (racemic) [Compound 10a]	100	140	> 25000
Cc1cc(NC(=O)c2cccc(S(=O)(=O)NC(C)CCCC(C)(C)O)c2)ccc1F (racemic) [Compound 21]	170	1710	> 25000
COC(=O)NCC(C)NS(=O)(=O)c1cccc(C(=O)Nc2ccc(F)c(C)c2)c1 (stereo not drawn) [Compound 1]	130	370	> 25000
COC(=O)NC[C@@H](C)NS(=O)(=O)c1cccc(C(=O)Nc2ccc(F)c(C)c2)c1 [Compound 1a]	180	110	> 25000
COC(=O)NC[C@H](C)NS(=O)(=O)c1cccc(C(=O)Nc2ccc(F)c(C)c2)c1 [Compound 1b]	1850	1570	> 25000
CNCC(C)NS(=O)(=O)c1cccc(C(=O)Nc2ccc(F)c(C)c2)c1 (stereo not drawn) [Compound 2]	9400	2400	> 25000
Cc1cc(NC(=O)c2cccc(S(=O)(=O)NC(C)CN(C)C)c2)ccc1F (stereo not drawn) [Compound 3]	7500	1100	> 25000
Cc1cc(NC(=O)c2cccc(S(=O)(=O)NC(C)CO)c2)ccc1F (stereo not drawn) [Compound 4, N-(4-fluoro-3-methyl-phenyl)-3-[(2-hydroxy-1-methyl-ethyl)sulfamoyl]benzamide]	280	320	> 25000
Cc1cc(NC(=O)c2cccc(S(=O)(=O)N[C@H](C)CO)c2)ccc1F [Compound 4a]	210	260	> 25000
Cc1cc(NC(=O)c2cccc(S(=O)(=O)N[C@@H](C)CO)c2)ccc1F [Compound 4b]	400	940	> 25000
COCC(C)NS(=O)(=O)c1cccc(C(=O)Nc2ccc(F)c(C)c2)c1 (stereo not drawn) [Compound 5]	240	840	> 25000
Cc1cc(NC(=O)c2cccc(S(=O)(=O)NC(C)CCC(=O)N(C)C)c2)ccc1F (stereo not drawn) [Compound 6]	180	110	> 25000
CNC(=O)CCC(C)NS(=O)(=O)c1cccc(C(=O)Nc2ccc(F)c(C)c2)c1 (stereo not drawn) [Compound 7]	540	240	> 25000
COC(=O)CCC(C)NS(=O)(=O)c1cccc(C(=O)Nc2ccc(F)c(C)c2)c1 (stereo not drawn) [Compound 8]	1400	2800	> 25000
CC(=O)NCC(C)NS(=O)(=O)c1cccc(C(=O)Nc2ccc(F)c(C)c2)c1 (stereo not drawn) [Compound 9]	1300	560	> 25000
Cc1cc(NC(=O)c2cccc(S(=O)(=O)N[C@H](CO)C(C)C)c2)ccc1F [Compound 11]	550	830	> 25000
CCC[C@@H](CO)NS(=O)(=O)c1cccc(C(=O)Nc2ccc(F)c(C)c2)c1 [Compound 12]	650	820	> 25000
Cc1cc(NC(=O)c2cccc(S(=O)(=O)NC(C)CCO)c2)ccc1F (stereo not drawn) [Compound 13]	210	710	> 25000
Cc1cc(NC(=O)c2cccc(S(=O)(=O)NC(C)(C)CO)c2)ccc1F [Compound 14]	380	530	> 25000
Cc1cc(NC(=O)c2cccc(S(=O)(=O)NC(C)(C)CCO)c2)ccc1F [Compound 15]	220	320	> 25000
C#CC(C)(C)NS(=O)(=O)c1cccc(C(=O)Nc2ccc(F)c(C)c2)c1 [Compound 16]	190	590	> 25000
Cc1cc(NC(=O)c2cccc(S(=O)(=O)NCCCC(=O)N(C)C)c2)ccc1F [Compound 17]	260	610	> 25000
Cc1cc(NC(=O)c2cccc(S(=O)(=O)N[C@H](C)CNC(=O)OC(C)(C)C)c2)ccc1F [Compound 18]	200	190	> 25000

Structure (SMILES)	EC50 (HBV [1]) [nM]	EC50 (HBV [2]) [nM]	CC50 at 4 days [3] [nM]
Cc1cc(NC(=O)c2cccc(S(=O)(=O)N[C@@H](C)CNC(=O)OC(C)(C)C)c2)ccc1F [Compound 19]	740	500	> 25000
COC(=O)N(C)CC(C)NS(=O)(=O)c1cccc(C(=O)Nc2ccc(F)c(C)c2)c1 (stereo not drawn) [Compound 20]	550	560	> 25000
Cc1cc(NC(=O)c2cccc(S(=O)(=O)N[C@H](C)C(N)=O)c2)ccc1F [Compound 22]	550	500	> 25000
Cc1cc(NC(=O)c2cccc(S(=O)(=O)N[C@@H](C)C(N)=O)c2)ccc1F [Compound 23]	1100	1430	> 25000
COCCC(C)NS(=O)(=O)c1cccc(C(=O)Nc2ccc(F)c(C)c2)c1 (stereo not drawn) [Compound 24]	210	1370	> 25000
Cc1cc(NC(=O)c2cccc(S(=O)(=O)NC(C)C(C)CO)c2)ccc1F (stereo not drawn) [Compound 25]	250	570	> 25000
CCC(C)(CO)NS(=O)(=O)c1cccc(C(=O)Nc2ccc(F)c(C)c2)c1 (stereo not drawn) [Compound 26]	390	340	> 25000
COCC(C)(CCO)NS(=O)(=O)c1cccc(C(=O)Nc2ccc(F)c(C)c2)c1 (stereo not drawn) [Compound 27]	1160	960	> 25000
COC(C)(C)CC(C)NS(=O)(=O)c1cccc(C(=O)Nc2ccc(F)c(C)c2)c1 (stereo not drawn) [Compound 28]	270	1410	> 25000
CC(=O)CC(C)NS(=O)(=O)c1cccc(C(=O)Nc2ccc(F)c(C)c2)c1 (stereo not drawn) [Compound 29]	190	230	> 25000
Cc1cc(NC(=O)c2cccc(S(=O)(=O)NC(C)C(C)(C)O)c2)ccc1F (stereo not drawn) [Compound 30]	260	170	> 25000
COCC(C)(CO)NS(=O)(=O)c1cccc(C(=O)Nc2ccc(F)c(C)c2)c1 (stereo not drawn) [Compound 31]	480	470	> 25000
Cc1cc(NC(=O)c2cccc(S(=O)(=O)NCCS(C)(=O)=O)c2)ccc1F [Compound 32]	190	640	> 25000
Cc1cc(NC(=O)c2cccc(S(=O)(=O)NC(C)C(C)O)c2)ccc1F (stereo not drawn) [Compound 33]	320	260	> 25000
COCC(C)(C)NS(=O)(=O)c1cccc(C(=O)Nc2ccc(F)c(C)c2)c1 [Compound 34]	540	640	> 25000
Cc1cc(NC(=O)c2cccc(S(=O)(=O)N[C@@H](C)C(=O)N(C)C)c2)ccc1F [Compound 35]	2700	3620	> 25000
Cc1cc(NC(=O)c2cccc(S(=O)(=O)NC(C)(C)CC(C)O)c2)ccc1F (stereo not drawn) [Compound 36]	270	150	> 25000
Cc1cc(NC(=O)c2cccc(S(=O)(=O)NCC(C)(C)C(=O)O)c2)ccc1F [Compound 37]	2680	3030	> 25000
Cc1cc(NC(=O)c2cc(S(=O)(=O)N[C@H](C)CO)ccc2C)ccc1F [Compound 38]	160	180	> 25000
Cc1cc(NC(=O)c2cccc(S(=O)(=O)NC(C)CC(=O)N(C)C)c2)ccc1F (stereo not drawn) [Compound 39]	1050	860	> 25000
Cc1cc(NC(=O)c2cccc(S(=O)(=O)N[C@H](C)C(=O)N(C)C)c2)ccc1F [Compound 40]	2280	2660	> 25000
CNC(=O)[C@@H](C)NS(=O)(=O)c1cccc(C(=O)Nc2ccc(F)c(C)c2)c1 [Compound 41]	2220	1350	> 25000
Cc1cc(NC(=O)c2cccc(S(=O)(=O)N[C@H](C)CS(C)(=O)=O)c2)ccc1F [Compound 42]	250	150	> 25000
